Assay results reported in patent US7262206B2, “Cycloalkyl—containing 5-acylindolinones, the preparation thereof and their use as medicaments” (Boehringer Ingelheim International GmbH, priority 2004, dated 2007).

What was measured:
db/db mice = experiment: Oral glucose tolerance test; type: in vivo; settings: fasted db/db mice, 2 g/kg oral glucose 30 minutes after substance
Experimental: Oral Glucose Tolerance Test
Fasted db/db mice 7 to 9 weeks old (Janvier, France) are weighed and blood is taken from the tip of the tail. This blood is used for the first measurement of glucose on the basis of which the animals are randomised and divided into groups. The test substance to be tested may be given either orally or i.p. as a suspension in 0.5% Natrosol. 30 minutes after the administration of the substance the animals are given orally 2 g/kg glucose in a volume of 0.1 ml/100 g body weight dissolved in NaCl solution. Subsequently, the glucose values are determined from the tail blood using a glucometer (Ultra OneTouch, Lifescan) at specific time intervals [30, 60, 120 and 180 minutes after oral administration of the glucose].

rats = experiment: Tolerability after oral administration to rats (behaviour); type: in vivo; settings: oral administration of 10 mg/kg

Q: How did the “activity in the oral glucose tolerance test” value (db/db mice) turn out when CC(=O)c1ccc2c(c1)/C(=C(/NC1CCN(C)CC1)c1ccc3c(c1)OCO3)C(=O)N2 [Example 1, 5-Acetyl-3-[(benzo[1,3]dioxol-5-yl)-(1-methyl-piperidin-4-ylamino)-methylidene]-2-indolinone] was run?
A: significant activity

Q: And the “changes in the animals' behaviour” value (rats)?
A: no changes were observed in the animals' behaviour
